Test: refractive index (Na D-line) (dimensionless); xn = mol fraction of the nth substance listed
Conditions: 101 kPa, Liquid, Standard Abbe refractometry

CCOC(=O)C(C)O (stereo not drawn) [DL-ethyl lactate] + CC(O)CO
refractive index
Conditions | x1 = 0.1 | x1 = 0.2 | x1 = 0.3 | x1 = 0.3999 | x1 = 0.4998 | x1 = 0.599 | x1 = 0.6999 | x1 = 0.7994 | x1 = 0.8997 | x1 = 1
288.15 K | 1.43169 | 1.42919 | 1.42688 | 1.42476 | 1.42287 | 1.42116 | 1.41959 | 1.41814 | 1.41676 | 1.41537
293.15 K | 1.42994 | 1.42736 | 1.42499 | 1.4228 | 1.42086 | 1.4191 | 1.41747 | 1.41597 | 1.41452 | 1.41307
298.15 K | 1.42819 | 1.42554 | 1.42309 | 1.42085 | 1.41883 | 1.41701 | 1.41532 | 1.41377 | 1.41227 | 1.41076
303.15 K | 1.42642 | 1.42369 | 1.42118 | 1.41886 | 1.41679 | 1.41491 | 1.41316 | 1.41155 | 1.40999 | 1.40843
308.15 K | 1.42461 | 1.42181 | 1.41924 | 1.41688 | 1.41475 | 1.41282 | 1.41102 | 1.40935 | 1.40773 | 1.4061
313.15 K | 1.42279 | 1.41992 | 1.41729 | 1.41488 | 1.4127 | 1.41071 | 1.40884 | 1.40711 | 1.40542 | 1.40374
318.15 K | 1.42098 | 1.41801 | 1.41529 | 1.41282 | 1.41055 | 1.4085 | 1.40659 | 1.40481 | 1.40309 | 1.40136
323.15 K | 1.41918 | 1.41615 | 1.41337 | 1.41082 | 1.40849 | 1.40637 | 1.40437 | 1.40252 | 1.40073 | 1.39898

CCOC(=O)C(C)O (stereo not drawn) [DL-ethyl lactate] + OCCCO
refractive index
Conditions | x1 = 0.1001 | x1 = 0.2001 | x1 = 0.3 | x1 = 0.3998 | x1 = 0.4996 | x1 = 0.5997 | x1 = 0.7 | x1 = 0.8 | x1 = 0.8997 | x1 = 1
288.15 K | 1.43819 | 1.43549 | 1.43282 | 1.43021 | 1.42764 | 1.4251 | 1.42262 | 1.42017 | 1.41776 | 1.41537
293.15 K | 1.43668 | 1.43388 | 1.43111 | 1.4284 | 1.42573 | 1.42312 | 1.42055 | 1.41803 | 1.41554 | 1.41307
298.15 K | 1.43517 | 1.43227 | 1.4294 | 1.42658 | 1.42383 | 1.42114 | 1.41851 | 1.41592 | 1.41336 | 1.41076
303.15 K | 1.43362 | 1.43062 | 1.42766 | 1.42476 | 1.42192 | 1.41914 | 1.4164 | 1.41371 | 1.41107 | 1.40843
308.15 K | 1.43214 | 1.42902 | 1.42592 | 1.42292 | 1.41996 | 1.41713 | 1.41427 | 1.41152 | 1.40882 | 1.4061
313.15 K | 1.43065 | 1.42743 | 1.42421 | 1.42111 | 1.41805 | 1.41506 | 1.41215 | 1.40932 | 1.40654 | 1.40374
318.15 K | 1.42914 | 1.4258 | 1.42249 | 1.41923 | 1.41608 | 1.41301 | 1.41004 | 1.40715 | 1.40428 | 1.40136
323.15 K | 1.42761 | 1.42417 | 1.42075 | 1.41741 | 1.41415 | 1.41097 | 1.40792 | 1.40493 | 1.40198 | 1.39898

From the NIST ThermoML archive (doi:10.1016/j.fluid.2014.04.002)
